These results are taken from patent US7618990B2, “Oxazolidone derivatives as PR modulators” (Wyeth, priority 2006, dated 2009).

Data set [1] concerns alkaline phosphatase activity in T47D cells. As to the kind of experiment: Effects of progestins and antiprogestins on alkaline phosphatase activity in T47D cells (antagonist mode). The format is cell-based. To be noted: Homo sapiens, in the presence of 1 nM progesterone, 24 h, read-out: T47D Alkaline Phosphatase Activity IC50 (nM) or % inhibition.
The target of data set [2] is T1, progesterone receptor (PR) (Homo sapiens, UniProt P06401).
T1 construct: in live, intact (whole) cells using the human breast carcinoma T47D cell line; endogenous in cells; host or cells: T47D human breast carcinoma cells
T1 sequence (P06401 1-933): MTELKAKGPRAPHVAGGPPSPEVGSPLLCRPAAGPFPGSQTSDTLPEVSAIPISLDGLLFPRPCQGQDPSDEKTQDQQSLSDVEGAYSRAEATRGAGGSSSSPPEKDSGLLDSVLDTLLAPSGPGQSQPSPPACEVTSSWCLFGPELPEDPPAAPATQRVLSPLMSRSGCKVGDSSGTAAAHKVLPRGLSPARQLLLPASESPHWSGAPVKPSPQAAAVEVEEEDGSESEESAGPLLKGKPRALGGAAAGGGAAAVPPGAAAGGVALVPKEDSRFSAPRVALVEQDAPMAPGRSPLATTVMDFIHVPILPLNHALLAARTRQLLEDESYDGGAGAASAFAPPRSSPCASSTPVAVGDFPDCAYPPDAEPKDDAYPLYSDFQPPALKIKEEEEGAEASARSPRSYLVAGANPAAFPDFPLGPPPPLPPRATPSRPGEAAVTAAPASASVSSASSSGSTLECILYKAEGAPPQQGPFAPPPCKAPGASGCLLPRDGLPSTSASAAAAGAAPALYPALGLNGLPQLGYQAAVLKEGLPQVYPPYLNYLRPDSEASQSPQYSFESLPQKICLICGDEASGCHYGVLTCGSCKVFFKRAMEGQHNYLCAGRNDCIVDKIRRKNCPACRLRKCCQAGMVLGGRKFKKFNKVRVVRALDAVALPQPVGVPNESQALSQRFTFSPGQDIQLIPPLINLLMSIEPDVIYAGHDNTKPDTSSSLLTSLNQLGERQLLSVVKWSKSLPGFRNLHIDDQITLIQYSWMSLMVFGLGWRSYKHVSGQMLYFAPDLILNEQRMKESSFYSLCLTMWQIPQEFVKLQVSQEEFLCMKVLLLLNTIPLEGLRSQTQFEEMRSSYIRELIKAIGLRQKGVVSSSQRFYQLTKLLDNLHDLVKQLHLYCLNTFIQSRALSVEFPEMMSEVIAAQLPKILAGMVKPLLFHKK
As to the kind of experiment: Progesterone receptor whole cell competition binding assay using T47D cells. To be noted: intact T47D cells, 3 nM 3H-progesterone, 3 h at 37° C. On the procedure:
(2) Progesterone Receptor Whole Cell Competition Binding Assay Using T47D Cells
PURPOSE: To evaluate the progesterone receptor (PR) binding activity of progestins or antiprogestins in live, intact (whole) cells using the human breast carcinoma T47D cell line and ^3H-progesterone as the labeled ligand.
Culture Medium: • 5% RC: phenol red free DMEM:F12 (1:1) (GIBCO, BRL) supplemented with 5% (v/v) charcoal stripped fetal bovine serum (not heat-inactivated), 100 U/mL penicillin, 100 μg/mL streptomycin, and 2 mM the GlutaMax™ reagent (GIBCO, BRL). • 10% RC: Same as above supplemented with 10% (v/v) FBS. • ^3H-Progesterone: Perkin Elmer Life Science, cat# NET-381 (typically around 102 Ci/mmol)
T47D cells were maintained in 10% RC media at 37° C. in a 5% CO2/humidified atmosphere and were split twice weekly for proper response. Cells were plated in 10% RC the day before binding assay at 50,000 cells per well in the white, clear bottom plates purchased through VWR or Perkin Elmer.
Cells plated the day prior to the assay in white clear bottom plates were used. A master compound plate was set up containing control and test compounds at 20× final desired concentration for the competition binding. A typical dose range of 20× concentrations were (in nM); 200,000; 20,000; 6000; 2000; 600; 200; 20; and 2. Final concentrations were (in nM); 10,000; 1000; 300; 100; 30; 10; 1; 0.1. Control compounds were typically run 10-fold lower than this and include a 0, or vehicle, control well. A stock of 60 nM ^3H-progesterone (20×) were also prepared at a volume needed of 10 μL per well.
Media on cells were replaced with 180 μL of 5% RC. Ten microliters (10 μL) of 60 nM ^3H-progesterone (for final concentration of 3 nM) was added immediately, followed by 10 μL of 20× test or control compounds. Compounds were incubated for 3 h at 37° C. (A time course study found no difference between 2 and 4 h incubation.)
Following incubation, media was carefully removed and cells were washed 3× with 200 μL 5% RC each wash. Fifty microliters of liquid scintillation cocktail was added and the plates were shaken vigorously for a minimum of 15 min. Plates were read on the Wallac Microbeta® 1450 plate reader.
Square root-transformed data were used for analysis of variance and calculation of IC50. SAS software (SAS Institute, Inc.) was used for all the statistical analysis.
Progesterone was used as a reference progestin and RU486 as a reference antiprogestin.

`O=C1NCCN1c1nc(-c2ccc(Br)cc2)cs1` [Example 75, 1-[4-(4-Bromophenyl)-1,3-thiazol-2-yl]imidazolidin-2-one] showed a melting point of 230 to 233 °C. The half-maximal inhibitory concentration (IC50) in data set [1] stood at 1070 nM. Besides, in data set [2], the Ki came out at 2080 nM.
